Patent publication US20180242591A1, “Insect Repellent” (Evolva SA, priority 2015, published 2018)
“And” between values parts separate entries of the source, which are not always exact repeats. Equal entries are not always repeated.

System: female Aedes aegypti mosquitoes
Experiment: In vitro repellency against mosquitoes, treated collagen membranes over blood-filled wells
Format: in vivo
Conditions: 20% DEET in ethanol (positive control), 25 μL on membrane; probes over 20 minutes; five replicates
Description: A laboratory trial was conducted to evaluate the repellency of santalol against female Aedes aegypti mosquitoes using an in vitro method. A 20% DEET positive control and untreated and ethanol negative controls were also assessed for comparison purposes. Test substances were applied to prepared collagen membranes placed over heated, blood-filled wells and exposed to mosquitoes. The number of mosquitoes probing each well was recorded at two minute intervals up to 20 minutes. Female adult laboratory reared Aedes aegypti mosquitoes (susceptible) were obtained from Benzon Research in Carlisle, Pa. 250 mosquitoes were used per replicate (5 replicates per test). Adult mosquitoes were 3-8 days old. Santalol was diluted in ethanol to 2% and 5% concentrations. A positive control consisting of 20% DEET in ethanol was prepared using stock solutions. Negative controls consisted of no treatment, and ethanol-only treatment. […] The number of mosquitoes probing each membrane was recorded every two minutes for twenty minutes. […] Percent repellency was calculated for each replicate using the total number of probes with the following formula: [formula] […] Average percent repellency and standard error (SE) were calculated across all five replicates. […]

CCN(CC)C(=O)c1cccc(C)c1 [20% DEET, N,N-Diethyl-meta-toluamide]
Average percent repellency ± SE: 93.9% and 93.9 ± 2.3%
